Experimental data taken from US11661437B2, “Steroid derivative regulators, method for preparing the same, and uses thereof” (priority 2018, dated 2023).

How the values were obtained:
[1] = Pharmacokinetic assay in Balb/c mice (plasma and brain tissue); type: in vivo; conditions: male, Balb/c, mouse, in vivo, po, 5 mg/kg; for AUC(0-t): Area under curve AUC0-t; for AUC(0-inf): Area under curve AUC0-∞; for half-life: Half-life t1/2; for MRT: Mean residence time MRT; for Cmax: Plasma concentration Cmax
Experimental: Balb/c mice were used as test animals. The pharmacokinetic behavior in mice (plasma and brain tissue) of the compounds of Example 2, Example 5, Example 7, Example 12, Example 18, Example 23, Example 26, Example 38, Example 41, Example 50, Example 51 and Example 66 orally administrated at a dose of 5 mg/kg was studied.
Each group had 24 male Balb/c mice. After an overnight fast, Balb/c mice were administrated p.o. with the test compound at an administration dose of 5 mg/kg and an administration volume of 10 mL/kg.
0.2 ml of blood was taken from the heart before administration and at 0, 0.5, 1, 2, 4, 6, 8 and 24 hours after administration. The samples were stored in EDTA-K2 tubes, and centrifuged for 6 minutes at 4° C., 6000 rpm to separate the plasma. The plasma samples were stored at −80° C. The mice were sacrificed with CO2, and the whole brain tissue was taken out, weighed, placed in a 2 mL centrifuge tube and stored at −80° C.
1) 160 μL of acetonitrile was added to 40 μL of the plasma sample for precipitation, and then the mixture was centrifuged for 5-20 minutes at 3500×g.
2) 90 μL of acetonitrile containing the internal standard (100 ng/mL) was added to 30 μL of the plasma and brain homogenate samples for precipitation, and then the mixture was centrifuged for 8 minutes at 13000 rpm.
3) 70 μL of the treated supernatant was taken and added to 70 μL of water, and mixed by vortex for 10 minutes. 20 μL of the mixture was taken to analyze the concentration of the test compound by LC/MS/MS. LC/MS/MS analysis instrument: AB Sciex API 4000 Qtrap.
2.6 Liquid Chromatography Analysis • Liquid chromatography condition: Shimadzu LC-20AD pump. • Chromatographic column: Agilent ZORBAX XDB-C18 (50×2.1 mm, 3.5 μm); Mobile phase: Eluent A was 0.1% formic acid in water, and Eluent B was acetonitrile. • Flow rate: 0.4 mL/min • Elution time: 0-4.0 minutes the eluent is as follows:
The main parameters of pharmacokinetics were calculated by WinNonlin 6.1.

GABA-A receptor = assay: 35S-TBPS binding assay on rat cerebral cortex cell membrane; parameters: species or system Sprague-Dawley rat; conditions: 2 nM 35S-TBPS, GABA added, read-out: 35S-TBPS bindng test, IC50 on inhibiting the TBPS binding activity
Experimental: 1.2.1 Extraction of Cerebral Cortex Cell Membrane:
1. The cerebral cortex of male Sprague-Dawley rat was isolated.
2. A pre-chilled 0.32 M sucrose solution (one tablet of protease inhibitor was added per 100 ml) was added to the cerebral cortex (the volume of sucrose solution was 10 times the volume of the cerebral cortex). The mixture was crushed with a 50 ml glass tissue homogenizer in batches and mixed well.
3. The mixture was centrifuged at 1500 g, 4° C. for 10 minutes, and the supernatant was collected.
4. The mixture was centrifuged at 20000 g, 4° C. for 30 minutes, and the supernatant was discarded.
5. The precipitate was resuspended with the pre-chilled phosphate buffer saline (PBS) (one tablet of protease inhibitor was added per 100 ml). An average of 4 ml of PBS was added per rat, and the mixture was mixed well with a glass tissue homogenizer.
6. The mixture was centrifuged at 10000 g, 4° C. for 10 minutes, and the supernatant was discarded.
7. Steps 5 and 6 were repeated three times.
8. Finally, the precipitate was resuspended with 4 volumes of PBS. The resulting solution was dispensed, frozen in liquid nitrogen, and stored at −80° C.
9. The protein concentration was measured by the bicinchoninic acid (BCA) method.
1.2.2 ^35S-TBPS Binding Assay
1. 230 μL of PBS was added to each well of a well plate with 1.1 ml volume.
2. 60 μL of the cerebral cortex cell membrane (5 μg/μL) solution was added to each well, and the mixture was mixed well.
3. The test compound (3 μL per well) was added, and the plate was incubated at 25° C. for 5 minutes. The DMSO concentration was 1%. The initial compound concentration was 1 NM, and a 3-fold dilution in gradient was carried out to obtain a total of 8 gradients and 2 replicates. 1% DMSO was used as a negative control, and 10 μM P026-2 was used as a positive control.
4. GABA was added at a final concentration of […], and incubated at 25° C. for 5 minutes. 1 mM GABA solution was formulated, and 1.5 μL of the solution was added to each well.
5. ^35S-TBPS was added at a final concentration of 2 nM. The concentration of isotope mother solution was 9.7 μM. After dilution with PBS for 100 times, 6 μL of the diluted isotope solution was added to each well.
6. The plate was incubated at 4° C. for 20 hours.
7. The FilterMate GF/C plate was pre-treated with 0.5% PEI, and incubated at 4° C. for 1 hour.
8. The FilterMate GF/C plate was washed with Universal Harvester twice, 50 ml PBS each time.
9. The reaction solution was transferred to the GF/C plate, and each well was washed 4 times with 900 μL PBS.
10. The washed GF/C plate was placed at 55° C. and dried for 10 minutes.
11. 40 μL of scintillation solution was added to each well, and the CPM value was read with TopCount.
1.2.3 Experimental Data Processing Method:
In the experiment, the CPM (counts per minute) value was read with TopCount. According to the readings of the High control (DMSO) and the Low control (10 μM of the positive compound) experimental groups, the % inhibition was calculated based on the following formula: % Inhibition=100×(CPMHigh control−CPMSample)/(CPMHigh control−CPMLow control)
The IC50 of the compound was calculated according to the following 4-parameter nonlinear logic formula: Y=Bottom+(Top−Bottom)/(1+10^((Log IC50−X)*Hill Slope)),
The effect of the compound of the present invention on the TBPS binding activity was determined by the above test, and the measured IC50 values are shown in Table 1.

ICR mice = assay: In vivo pharmacodynamic test in the forced swimming model in mice; conditions: 10 mpk p.o.
Experimental: The antidepressant effect of the compound was evaluated by the forced swimming model in mice.
Male ICR mice (25-35 g) were adapted in the test environment for 3 days before the forced swimming test.
According to the test design, the mice were randomly grouped on the day before the test according to body weight, with 12 mice in each group. Before the test, the compounds of each example were administrated intragastrically according to the Tmax thereof in the brain in mice pharmacokinetic test as follows:
1) Model group (0.5% CMC-Na+1% Tween 80 solution, p.o., 10 mL/kg);
2) Compounds of Example 2, Example 5, Example 7, Example 18, Example 23, Example 26 and Example 50 (10 mg/kg, p.o., 10 mL/kg).
When being administrated, the compounds of each example were suspended in 0.5% CMC-Na-1% Tween 80 solution to the desired concentration.
0.5-1 hour after administration, ICR mice were placed in a forced swimming device (transparent glass drum (water depth 18 cm, water temperature 25-26° C.), one mouse per tank) and forced to swim for 6 minutes. The forced swimming device recorded the floating time of the ICR mice during the entire 6 minutes, and the data of the latter four minutes were used for data analysis. The mice were taken out immediately after the swimming test, wiped dry and put back in their original cages.
Note: The criterion for determining the immobility time is that the mouse stops struggling in water and floats, and there are only slight limb movements to keep the head floating on the water.
3.4 Data Analysis Floating time percentage=100*floating time/240 s.

| SMILES | Area under curve AUC0-t [1] [ng·h/mL] | Area under curve AUC0-∞ [1] [ng·h/mL] | Half-life t1/2 [1] [h] | Mean residence time MRT [1] [h] | Plasma concentration Cmax [1] [ng/mL] | AUC(0-t) [1] [ng·h/mL] | AUC(0-inf) [1] [ng·h/mL] | half-life [1] [h] | MRT [1] [h] | Tmax ([1]; Peak time tmax) [h] | Cmax [1] [ng/mL] | IC50 (GABA-A receptor) [nM] | Mean (immobility, %) (ICR mice; floating time percentage = 100*floating time/240 s) [%] | Mean (immobility, s) (ICR mice; latter four minutes of 6 min swim) [s] | Tmax [1] [h] |
| --- | --- | --- | --- | --- | --- | --- | --- | --- | --- | --- | --- | --- | --- | --- | --- |
| C[C@@]1(O)CC[C@@]2(F)[C@H](CC[C@H]3[C@@H]4CC[C@H](C(=O)Cn5cc(C(F)(F)F)cn5)[C@@]4(C)CC[C@@H]32)C1 [Example 7, 1-((3R,5R,8S,9S,10R,13S,14S,17S)-10-Fluoro-3-hydroxy-3,13-dimethylhexadecahydro-1H-cyclopenta[a]phenanthren-17-yl)-2-(4-(trifluoromethyl)-1H-pyrazol-1-yl)ethan-1-one] | 5106.0 | 5514.3 | 1.89 | 3.37 | 1263.3 | 3780 | 3780 | 1.73 | 3.67 | 1 | 888 | 12.4 | 58.99 | 141.58 |  |
| C[C@@]1(O)CC[C@@]2(F)[C@H](CC[C@H]3[C@@H]4CC[C@H](C(=O)Cn5ncnn5)[C@@]4(C)CC[C@@H]32)C1 [Example 12, 1-((3R,5R,8S,9S,10R,13S,14S,17S)-10-Fluoro-3-hydroxy-3,13-dimethylhexadecahydro-1H-cyclopenta[a]phenanthren-17-yl)-2-(2H-tetrazol-2-yl)ethan-1-one] |  |  |  | 0.73 |  |  |  |  | 0.86 |  |  | 13.5 |  |  | 0.5 |
| Cc1nn(CC(=O)[C@H]2CC[C@H]3[C@@H]4CC[C@@H]5C[C@](C)(O)CC[C@]5(F)[C@H]4CC[C@]23C)cc1C#N [Example 38, 1-(2-((3R,5R,8S,9S,10R,13S,14S,17S)-10-Fluoro-3-hydroxy-3,13-dimethylhexadecahydro-1H-cyclopenta[a]phenanthren-17-yl)-2-oxoethyl)-3-methyl-1H-pyrazole-4-carbonitrile] | 1216.1 | 1230.2 | 1.14 | 1.6 | 746.7 | 1950 | 1970 | 1.08 | 1.7 | 0.5 | 1110 | 34 |  |  |  |
| Cc1nnn(CC(=O)[C@H]2CC[C@H]3[C@@H]4CC[C@@H]5C[C@](C)(O)CC[C@]5(F)[C@H]4CC[C@]23C)n1 [Example 41, 1-((3R,5R,8S,9S,10R,13S,14S,17S)-10-Fluoro-3-hydroxy-3,13-dimethylhexadecahydro-1H-cyclopenta[a]phenanthren-17-yl)-2-(5-methyl-2H-tetrazol-2-yl)ethan-1-one] |  |  |  | 0.91 | 625.3 |  |  |  | 0.94 |  | 1230 | 13.6 |  |  | 0.5 |
| C[C@@]1(O)CC[C@]2(F)C3CC[C@]4(C)[C@@H](C(=O)Cn5cc(C#N)c(Cl)n5)CC[C@H]4[C@@H]3CC[C@@H]2C1 (stereo partly drawn) [Example 51, 3-Chloro-1-(2-((3R,5R,8S,10R,13S,14S,17S)-10-fluoro-3-hydroxy-3,13-dimethylhexadecahydro-1H-cyclopenta[a]phenanthren-17-yl)-2-oxoethyl)-1H-pyrazole-4-carbonitrile] | 1625.9 | 1796.0 | 2.19 | 3.28 | 512.3 | 1960 | 2080 | 1.93 | 2.65 | 0.5 | 711 | 14.3 |  |  | 1 |
| C[C@@]1(O)CC[C@@]2(F)[C@H](CC[C@H]3[C@@H]4CC[C@H](C(=O)COc5cnc(C(F)(F)F)nc5)[C@@]4(C)CC[C@@H]32)C1 [Example 66, 1-((3R,5R,8S,9S,10R,13S,14S,17S)-10-Fluoro-3-hydroxy-3,13-dimethylhexadecahydro-1H-cyclopenta[a]phenanthren-17-yl)-2-((2-(trifluoromethyl)pyrimidin-5-yl)oxy)ethan-1-one] |  |  | 3.60 | 5.01 |  |  |  | 4.39 | 5.54 | 0.5 |  | 27 |  |  | 1 |
